Where two headings read alike, the source gives them in different places.
Legend:
range of models = conditions: once-daily oral administration; cited from earlier work
HUVEC = HUVEC assay, endothelial cell proliferation (WO 00/47212); assay type: cell-based; conditions: Homo sapiens
Calu-6 tumour xenograft = assay: in vivo solid tumour model, Calu-6 tumour xenograft (WO 00/47212); conditions: once-daily oral, 28 days

COc1cc2c(Oc3ccc4[nH]c(C)cc4c3F)ncnc2cc1OCCCN1CCCC1 [AZD2171, 4-(4-fluoro-2-methyl-1H-indol-5-yloxy)-6-methoxy-7-(3-(pyrrolidin-1-yl)propoxy)quinazoline]
anti-tumour activity in a range of models (range of models): broad-spectrum anti-tumour activity | IC50 (HUVEC; HUVEC, basal (unstimulated) proliferation, read-out: IC50 for inhibition of basal endothelial cell proliferation): > 500 nM | IC50 (HUVEC; VEGF-stimulated, HUVEC assay, read-out: IC50 for inhibition of VEGF-stimulated endothelial cell proliferation): 0.4 ± 0.2 nM | inhibition of growth of Calu-6 tumour xenograft (Calu-6 tumour xenograft; 1.5 mg/kg/day, P<0.01): 49% | inhibition of growth of Calu-6 tumour xenograft (Calu-6 tumour xenograft; 3 mg/kg/day, P<0.00001): 69% | inhibition of growth of Calu-6 tumour xenograft (Calu-6 tumour xenograft; 6 mg/kg/day, P<0.00001): 91%

Reference: patent US20090176731A1 (priority 2005, published 2009)
